Consider 6 molecules from ChEMBL document CHEMBL3430912, “GSK Tres Cantos Anti-Kinetoplastid Screening (TCAKS) Data”.

A value given as a limit tells only on which side of the number the result lay.

Data set [1] in a line: GSK_TCAKS: pIC50 HepG2 human cell line viability assay using luminiscence. […] Seeding density was checked to ensure that new mono-layers were not more than 50% confluent at the time of harvesting. Cell suspension was added to 500 mL of the same medium at a final density of 1.2 * 10^5 cells/mL. This cell suspension was dispensed (25 uL, 3000 cells per well) into 384-well clear-bottom plates using a Multidrop Combi dispenser. Prior to addition of the cell suspension, the screening compounds (250 nL) were pre-dispensed into the plates with an Echo liquid handler. Plates were incubated for 48 h at 37C, 5% CO2. After incubation, plates equilibrated at room temperature for 30 min before proceeding to develop the luminescent signal. The signal developer, CellTiter-Glo Reagent, was allowed to equilibrate at room temperature for 30 min and added to the plates (25uL per well) using a Multidrop Combi dispenser. Plates were left for 10 min at room temperature for stabilization and then read using a ViewLux. The format is toxicity, cell-based.

Data set [2] relates to Leishmania donovani. Briefly: GSK_TCAKS: pIC50 Leishmania donovani viability assay using fluorescence intensity. Assay plates (1536-well) were prepared by adding 30nL per well of compound. For single shot assay, the final compound concentration was 5uM. […] Briefly, eGFP LdBOB axenic amastigotes were harvested, fixed and counted in a CASY cell counter (Roche-Applied Science). A final concentration of 1.5 * 10^5 cells per well were prepared in amastigote media containing 500 U/mL penicillin/streptomycin (Invitrogen) and 6uL was dispensed to each experimental well using a Multidrop Combi dispenser (Thermo Scientific). 6uL of assay media was dispensed to control columns used as reference for 100% compound response. Following incubation for 72 h at 37C, 5% CO2, 2 uL of resazurin was added to each well at a final concentration of 0.5 mM in phosphate buffered saline (PBS) with IGEPAL (Sigma-Aldrich), 0.05% (v/v). Type of data set: functional, organism-based.

The test system of data set [3] is Trypanosoma cruzi. Description: GSK_TCAKS: pIC50 Trypanosoma cruzi Imaging: Amastigotes/Cell. […] Cells were then washed once with PBS before infection. T. cruzi trypomastigotes, collected at days 5 to 8 after infection from LLC-MK2 parasite infected cultures, were allowed to swim out for 4h at 37C from a centrifuged pellet (2,500 rpm/10 min/room temperature). Trypomastigotes were then collected and counted in a CASY Cell Counter. Trypomastigotes, in supplemented DMEM, were added to H9c2 cultures in a multiplicity of infection of 1 and incubated for 18 h. Cells were washed once with PBS before incubation of the infected H9c2 monolayer with trypsin (Life-Technologies) to detach cells from the flask. Cells were counted in a CASY Cell Counter using a 150 um capillary and their density set at 5 * 10^4 cells per mL in supplemented assay DMEM. Infected H9c2 were dispensed into 384-well poly-lysine coated assay plates at 50uL per well using a Multidrop Combi dispenser. After seeding them, the plates were incubated at 37C, 5% CO2 for 72h. Cultures were then fixed and stained by addition of 50 uL of a solution containing 8% formaldehyde and 4 uM DRAQ5 DNA dye (BioStatus, UK) per well. […] Five images were collected per well for reliable statistical analysis. Automated image analysis was performed with a script developed on Acapella High Content Imaging and Analysis Software (PerkinElmer). Output: number of amastigotes per cell as infection level measurement. The settings on record: H9c2, 4 h. Type of data set: functional, organism-based, Rattus norvegicus.

Data set [4] concerns Leishmania donovani. Briefly: GSK_TCAKS: pIC50 Leishmania donovani Imaging: Infected Macrophages. Assay plates (384-well) were prepared by adding 250nL of compound to each well. For single shot assay, the final compound concentration was 5 uM. […] Automated image analysis was performed with a script developed on Acapella High Content Imaging and Analysis Software (PerkinElmer). Output: Percent of infected macrophage cells were reported for each well. Type of data set: functional, organism-based, Homo sapiens. The following applies: THP-1.

Data set [5] relates to Trypanosoma brucei brucei. Description: GSK_TCAKS: pIC50 Trypanosoma brucei viability assay using fluorescence intensity. Assay plates (1536-well) were prepared by dispensing 25nL of compound solution per well using an Echo acoustic dispenser (Labcyte). Type of data set: functional, organism-based. The following applies: Lister 427, 2 h.
For data set [6], the system named is Leishmania donovani. Briefly: GSK_TCAKS: pIC50 Leishmania donovani Imaging: Amastigotes/Macrophages. Assay plates (384-well) were prepared by adding 250nL of compound to each well. For single shot assay, the final compound concentration was 5 uM. […] Automated image analysis was performed with a script developed on Acapella High Content Imaging and Analysis Software (PerkinElmer). Output: Average number of amastigotes per macrophage cell were reported for each well. The format is functional, organism-based, Homo sapiens. The settings on record: THP-1.

In data set [7] the test system is Leishmania donovani. Briefly: GSK_TCAKS: pIC50 Leishmania donovani Imaging: THP-1 Host Macrophages. Assay plates (384-well) were prepared by adding 250nL of compound to each well. For single shot assay, the final compound concentration was 5 uM. […] Automated image analysis was performed with a script developed on Acapella High Content Imaging and Analysis Software (PerkinElmer). Output: THP-1 cell count were reported for each well. The format is functional, organism-based, Homo sapiens.

Data set [8] concerns Trypanosoma brucei brucei. Briefly: GSK_TCAKS: pIC50 Trypanosoma brucei viability assay using luminiscence. Assay plates (1536-well) were prepared. T. brucei cultures were harvested and counted in a CASY cell counter. A parasite suspension was prepared at a final concentration of 5 * 10^4 cells/mL in complete HMI9 medium and 6uL was dispensed to all wells containing compounds using a Multidrop Combi dispenser. 6uL of HMI9 media with 0.4% DMSO were dispensed to control columns. Plates were incubated for 24 h at 37C, 5% CO2 then tempered for 10 min at room temperature. ATP content was quantified by adding 4 uL of CellTiter-Glo Reagent (Promega) according to the manufacturer's instructions. Luminescence was measured using a ViewLux. The format is functional, organism-based. The following applies: Lister 427, CASY.

In data set [9] the test system is Trypanosoma cruzi. Briefly: (§1) GSK_TCAKS: pIC50 Trypanosoma cruzi Imaging: Infected Cells. […] Cells were then washed once with PBS before infection. T. cruzi trypomastigotes, collected at days 5 to 8 after infection from LLC-MK2 parasite infected cultures, were allowed to swim out for 4h at 37C from a centrifuged pellet (2,500 rpm/10 min/room temperature). Trypomastigotes were then collected and counted in a CASY Cell Counter. Trypomastigotes, in supplemented DMEM, were added to H9c2 cultures in a multiplicity of infection of 1 and incubated for 18 h. Cells were washed once with PBS before incubation of the infected H9c2 monolayer with trypsin (Life-Technologies) to detach cells from the flask. Cells were counted in a CASY Cell Counter using a 150 um capillary and their density set at 5 * 10^4 cells per mL in supplemented assay DMEM. Infected H9c2 were dispensed into 384-well poly-lysine coated assay plates at 50uL per well using a Multidrop Combi dispenser. After seeding them, the plates were incubated at 37C, 5% CO2 for 72h. Cultures were then fixed and stained by addition of 50 uL of a solution containing 8% formaldehyde and 4 uM DRAQ5 DNA dye (BioStatus, UK) per well. […] Five images were collected per well for reliable statistical analysis. Automated image analysis was performed with a script developed on Acapella High Content Imaging and Analysis Software (PerkinElmer). Output: percentage of infected cells per well as a second infection marker. Type of data set: functional, organism-based, Rattus norvegicus. The following applies: H9c2, 4 h.

Data set [10] deals with Trypanosoma cruzi. Briefly: GSK_TCAKS: pIC50 Trypanosoma cruzi viability assay using beta-GAL activity. This assay was run at single shot at 5uM compound concentration per well. The biological reagents consisted of NIH-3T3 host cells and trypomastigotes parasitic cells; both cell types were set to a 3.3 * 10^5 cells/mL dilution in assay DMEM by means of a CASY cell counter device using a 60um capillary. 6 uL of the mixture were dispensed per well (about 1 * 10^3 host-cells and 1 * 10^3 parasites) with a Multidrop Combi dispenser. […] In all wells, the percentage of DMSO never exceeded 0.5%. Plates incubated for four days at 37C, 5% CO2. The substrate used for the assay fluorescence intensity (FLINT) readout was resorufin-beta-D-galactopiranoside (Sigma-Aldrich) at 5uM per well. It was diluted in PBS supplemented with the soft detergent Igepal (Fluka). Type of data set: functional, organism-based, Mus musculus. The settings on record: Tulahuen, NIH3T3.

Data set [11] has as its target Sterol 14-alpha demethylase (Trypanosoma cruzi (strain CL Brener), UniProt Q7Z1V1). Briefly: GSK_TCAKS: pIC50 CYP51 from Trypanosoma cruzi. Type of data set: functional.
Data set [12] relates to Trypanosoma cruzi. Described as §1, with “H2C9” for “Trypanosoma cruzi”, “H9c2 Host Cardiomyocytes.” for “Infected Cells.”, “Number” for “percentage”, “H9c2 Host Cardiomyocytes nuclei to determine drug-related cytotoxicity.” for “infected cells per well as a second infection marker.”. The format is functional, organism-based, Rattus norvegicus. The following applies: H9c2, 4 h.

Chain of Sterol 14-alpha demethylase (Q7Z1V1 whole entry): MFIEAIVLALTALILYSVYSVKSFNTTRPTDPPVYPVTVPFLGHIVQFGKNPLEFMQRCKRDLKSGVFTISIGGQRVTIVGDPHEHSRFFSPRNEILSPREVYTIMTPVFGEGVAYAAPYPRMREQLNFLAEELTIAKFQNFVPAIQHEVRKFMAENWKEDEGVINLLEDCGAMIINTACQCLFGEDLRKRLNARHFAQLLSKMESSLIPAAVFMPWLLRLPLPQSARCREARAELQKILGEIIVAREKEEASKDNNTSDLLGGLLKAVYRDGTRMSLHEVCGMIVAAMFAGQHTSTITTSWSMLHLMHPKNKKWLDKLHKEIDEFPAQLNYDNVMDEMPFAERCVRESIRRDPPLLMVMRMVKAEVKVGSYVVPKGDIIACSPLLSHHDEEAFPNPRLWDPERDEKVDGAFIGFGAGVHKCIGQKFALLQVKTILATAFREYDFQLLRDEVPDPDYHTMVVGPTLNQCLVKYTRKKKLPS

The molecule `CCCc1cc(C(=O)Nc2ncc(-c3cccc(Br)c3)n2C)[nH]n1` showed a half-inhibitory concentration (IC50) at 48 h in data set [1] greater than 100 µM. The IC50 with Leishmania donovani [2] was 6.31 µM; in the data set with Trypanosoma cruzi [3] it was 2.51 µM; in the data set with Leishmania donovani [4], 5.01 µM; in [5], 2.51 µM; in the data set on Leishmania donovani [6] it was 3.98 µM; in the data set with Leishmania donovani [7], 31.6 µM. In addition, the concentration for half-maximal inhibition (IC50) is 1.26 µM in data set [8]; 3.98 µM with Trypanosoma cruzi [9]; 2.51 µM in the data set on Trypanosoma cruzi [10]; 25.1 µM in data set [11]; greater than 50.1 µM in the data set with Trypanosoma cruzi [12].
On to `O=C(CC1(O)C(=O)N(Cc2cccs2)c2ccc(Br)cc21)c1cccnc1` (configuration not stated), for which, in data set [1], the midpoint of inhibition, the IC50 at 48 h, lay at 63.1 µM. The IC50 in the data set with Leishmania donovani [2] is greater than 50.1 µM; in the data set with Trypanosoma cruzi [3], 25.1 µM; in the data set with Leishmania donovani [4], greater than 50.1 µM; in [5] it was 0.631 µM; in the data set with Leishmania donovani [6], greater than 50.1 µM; in the data set on Leishmania donovani [7], 20 µM. Also, the IC50 in data set [8] is 0.794 µM; in the data set with Trypanosoma cruzi [9], 39.8 µM; in the data set on Trypanosoma cruzi [10], 5.01 µM; in [11], 12.6 µM; in the data set with Trypanosoma cruzi [12], 3.98 µM.
In data set [1], `CC(=O)Nc1ccc(CN2CCC(N3CC(c4ccccc4)(c4ccccc4)OCC3=O)CC2)cc1` gave an IC50 at 48 h of 79.4 µM. Moreover, the IC50 in the data set with Leishmania donovani [2] was 0.501 µM; in the data set on Trypanosoma cruzi [3], 20 µM; in the data set with Leishmania donovani [4] it was 25.1 µM; in data set [5] it was 0.316 µM; with Leishmania donovani [6], 20 µM; with Leishmania donovani [7], 39.8 µM. Further, the concentration for half-maximal inhibition (IC50) in [8] is 0.398 µM; in the data set with Trypanosoma cruzi [9], 31.6 µM; with Trypanosoma cruzi [10], 12.6 µM; in data set [11], greater than 100 µM; with Trypanosoma cruzi [12], greater than 50.1 µM.
In data set [1], `CC(=O)Nc1ccc(-c2cnc(N)c(-c3nc4ccc(F)cc4[nH]3)c2)cc1` had an IC50 at 48 h of 10 µM. Also, the half-maximal inhibitory concentration (IC50) in the data set on Leishmania donovani [2] was 6.31 µM; in the data set on Trypanosoma cruzi [3] it was greater than 50.1 µM; with Leishmania donovani [4], 1 µM; in data set [5], 0.631 µM; in the data set on Leishmania donovani [6], 0.501 µM; in the data set on Leishmania donovani [7], 7.94 µM. The half-inhibitory concentration (IC50) in data set [8] is 2 µM; with Trypanosoma cruzi [9], greater than 50.1 µM; in the data set on Trypanosoma cruzi [10] it was 0.631 µM; in data set [11], 63.1 µM; with Trypanosoma cruzi [12], 0.794 µM.
In turn, `CN(CCOc1ccc(Cl)cc1)Cc1nc(N)nc(N(C)C)n1` showed an IC50 at 48 h in data set [1] greater than 100 µM. The IC50 was 15.8 µM in the data set with Leishmania donovani [2]; 7.94 µM with Trypanosoma cruzi [3]; 7.94 µM in the data set on Leishmania donovani [4]; 25.1 µM in data set [5]; 5.01 µM in the data set with Leishmania donovani [6]; greater than 50.1 µM in the data set with Leishmania donovani [7]. Besides, the half-maximal inhibitory concentration (IC50) in data set [8] is 15.8 µM; in the data set on Trypanosoma cruzi [9], 10 µM; in the data set with Trypanosoma cruzi [10], 5.01 µM; in data set [11], 31.6 µM; in the data set with Trypanosoma cruzi [12], greater than 50.1 µM.
As for `c1ccc2[nH]c(-c3ccc(N4CCCC4)nc3)nc2c1`, the 50% inhibitory concentration (IC50) at 48 h in data set [1] was greater than 100 µM. For the same molecule, the IC50 was 5.01 µM in the data set with Leishmania donovani [2]; 1 µM in the data set on Trypanosoma cruzi [3]; greater than 50.1 µM in the data set on Leishmania donovani [4]; 0.794 µM in [5]; greater than 50.1 µM in the data set with Leishmania donovani [6]; 31.6 µM with Leishmania donovani [7]. Further, the concentration for half-maximal inhibition (IC50) in data set [8] was 1 µM; in the data set with Trypanosoma cruzi [9], 1.58 µM; with Trypanosoma cruzi [10], 1 µM; in data set [11], greater than 100 µM; with Trypanosoma cruzi [12] it was greater than 50.1 µM.
